In one data set the test system is Gadd45a mRNA. Kind of data set: Ursolic acid i.p., Gadd45a mRNA by qPCR in immobilized TA muscle. The format is in vivo, C57BL/6 mice. As to conditions: ursolic acid 200 mg/kg i.p. twice a day from day 0; TA immobilized day 2; harvest day 5; vs vehicle (corn oil). How it is done: (§1) (A-E) Beginning on day 0, 6-8 wk old male C57BL/6 mice were given i.p. injections of ursolic acid (200 mg/kg) or an equal volume of vehicle (corn oil) twice a day. On day 2, the left tibialis anterior (TA) muscle of each mouse was immobilized. During immobilization, vehicle or ursolic acid continued to be administered via i.p. injection twice daily, and the right TA remained mobile and served as an intrasubject control. (A) On day 5, mice were euthanized and bilateral TA muscles were harvested. mRNA levels were determined with qPCR. In each mouse, mRNA levels from the immobile TA were normalized to values from the mobile TA, which were set at one. Data are means±SEM from ≧6 mice per condition. * P<0.05. (B-E) On day 8, bilateral TA muscles were harvested and weighed. (B) Effect of ursolic acid on skeletal muscle weight. In each mouse, the left (immobile) TA weight was normalized to the right (mobile) TA weight. Data are means±SEM from 10 mice per condition; ***P<0.001 by unpaired t-test. (C-E) Effect of ursolic acid on skeletal muscle fiber diameter. […]
(§2) Exon Arrays and Quantitative Real-Time RT-PCR (qPCR) in Muscle and Myotubes—Extraction of skeletal muscle RNA and RNA hybridizations to Mouse Exon 1.0 ST arrays (Affymetrix) were performed as described previously (Ebert, S. M., et al. (2010) Mol. Endocrinol. 24, 790-799). […]
For orientation: Quantitative PCR measures a nucleic acid by following its amplification.

A further data set deals with Cdkn1a mRNA. Kind of data set: Ursolic acid i.p., Cdkn1a mRNA by qPCR in immobilized TA muscle. It counts as in vivo, C57BL/6 mice. As to conditions: ursolic acid 200 mg/kg i.p. twice a day from day 0; TA immobilized day 2; harvest day 5; vs vehicle (corn oil). How it is done: as §1, §2
Data set [1] relates to immobilized tibialis anterior (TA) muscle. Kind of data set: Ursolic acid i.p., immobilization-induced skeletal muscle atrophy (TA weight, fiber diameter). It counts as in vivo, C57BL/6 mice. The settings on record: 200 mg/kg i.p. twice a day from day 0; TA immobilized day 2; harvest day 8; vs vehicle (corn oil). How it is done: as §1, with “diameter. (C) Data are mean fiber diameters ±SEM from 10 immobilized TA muscles per condition; ***P<0.0001 by unpaired t-test. (D) Representative cross-sections of muscle fibers immunostained with anti-laminin antibody. (E) Data are fiber size distributions of >3000 fibers from 10 immobilized TA muscles per condition.” for “diameter.”

The test system of data set [2] is tibialis anterior (TA) muscle. The data set can be described thus: Ursolic acid i.p., recovery from immobilization-induced skeletal muscle atrophy after remobilization. It counts as in vivo, mouse. As to conditions: TA immobilized 7 days, then remobilized; 200 mg/kg i.p. twice daily started at remobilization; vs vehicle.
For data set [3], the system named is quadriceps muscle mRNAs (IGF-I, Ar, Ppargc1a, Tfam, Nos1, Vegfa, Hk2). The data set can be described thus: Diet containing 0.14% ursolic acid, qPCR of quadriceps muscle mRNAs. As to conditions: diet containing 0.14% ursolic acid for 6 weeks, vs control diet. It counts as in vivo, C57BL/6 mice. How it is done:
(§3) (A) C57BL/6 mice were fed diets lacking or containing 0.14% ursolic acid for 6 weeks before quadriceps muscles were harvested for qPCR analysis of the indicated mRNAs. mRNA levels in ursolic acid-treated mice were normalized to mRNA levels in control mice, which were set at one. Data are means±SEM from 10 mice per condition; *P<0.05, **P<0.01. (B) Cultured C2C12 myoblasts were serum-starved for 6 hours, and then incubated for 2 minutes in the absence or presence of ursolic acid (10 μM) and/or recombinant human growth hormone (100 ng/ml), as indicated. Total cellular protein extracts were subjected to immunoprecipitation with anti-GHR antibody, followed by immunoblot analysis with anti-phospho-tyrosine or anti-GHR antibodies to assess phospho-GHR and total GHR, respectively.
Exon Arrays and Quantitative Real-Time RT-PCR (qPCR) in Muscle and Myotubes—Extraction of skeletal muscle RNA and RNA hybridizations to Mouse Exon 1.0 ST arrays (Affymetrix) were performed as described previously (Ebert, S. M., et al. (2010) Mol. Endocrinol. 24, 790-799). Exon expression arrays examining the effects of Gadd45a overexpression, fasting and muscle denervation in TA muscles of C57BL/6 mice were described previously (Banduseela, V. C., et al. (2009) Physiol. Genomics 39, 141-159; Welle, S., et al. (2004) Exp. Gerontol. 39, 369-377) and can be found in the NCBI Gene Expression Omnibus under GEO Series accession numbers GSE39196, GSE20103 and GSE39195, respectively. Myotube RNA was extracted using TRIzol solution (Invitrogen), and then purified using the RNeasy kit and RNase Free DNase Set (Qiagen). qPCR analyses of mRNAs encoding mouse ATF4, Gadd45a, Bax, caspase-3 (Casp3), androgen receptor (Ar), thyroid hormone receptor-α (Thra), growth hormone receptor (Ghr), hexokinase 2 (Hk2), Suclg1, Coxl1, Tfam, Nos1, MuRF1 (Trim63), atrogin-1 (Fbxo32), cathepsin L (Ctsl), Bnip3, Cdkn1a, PGC-1α (Ppargc1a), GLUT4 (S1c2a4), LC3a (Mapl1c3a) and Vegfa were performed using TaqMan Gene Expression Assays (Applied Biosystems). For qPCR studies, first strand cDNA was synthesized in a 20 μl reaction that contained 2 μg of RNA, random hexamer primers and components of the High Capacity cDNA reverse transcription kit (Applied Biosystems). qPCR was carried out using a 7500 Fast Real-Time PCR System (Applied Biosystems). All qPCR reactions were performed in triplicate and the cycle threshold (Ct) values were averaged to give the final results. To analyze the data, the ΔCt method was used, with level of 36B4 mRNA serving as the invariant control.
To test this, C57BL/6 mice were fed diets lacking or containing 0.14% ursolic acid for 6 weeks before quadriceps muscles were harvested for qPCR analysis. […] These effects of ursolic acid are consistent with ursolic acid's capacity to decrease Gadd45a and Cdkn1a expression.

In data set [4] the target is T1, growth hormone receptor (GHR) (Mus musculus, UniProt P16882).
T1 construct: endogenous in cells; host or cells: C2C12 mouse myoblasts (ATCC CRL-1772), serum-starved for 6 hours
T1 sequence (P16882 25-650): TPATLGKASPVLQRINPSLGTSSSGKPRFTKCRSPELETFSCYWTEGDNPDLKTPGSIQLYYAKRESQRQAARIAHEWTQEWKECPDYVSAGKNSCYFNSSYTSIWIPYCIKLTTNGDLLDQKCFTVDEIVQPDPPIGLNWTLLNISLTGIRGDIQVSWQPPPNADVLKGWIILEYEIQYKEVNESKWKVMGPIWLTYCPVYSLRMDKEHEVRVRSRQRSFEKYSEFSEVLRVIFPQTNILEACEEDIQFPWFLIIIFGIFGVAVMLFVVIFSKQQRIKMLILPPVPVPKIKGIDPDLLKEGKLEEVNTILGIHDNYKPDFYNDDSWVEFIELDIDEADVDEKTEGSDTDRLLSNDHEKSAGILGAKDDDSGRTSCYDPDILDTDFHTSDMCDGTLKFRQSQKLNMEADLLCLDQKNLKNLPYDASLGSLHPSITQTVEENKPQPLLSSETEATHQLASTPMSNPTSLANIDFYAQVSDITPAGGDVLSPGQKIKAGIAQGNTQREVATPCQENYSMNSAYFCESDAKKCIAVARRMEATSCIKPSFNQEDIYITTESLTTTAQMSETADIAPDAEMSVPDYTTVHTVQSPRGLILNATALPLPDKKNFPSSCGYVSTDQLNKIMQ
The data set can be described thus: GHR phosphorylation in serum-starved C2C12 myoblasts (anti-GHR immunoprecipitation, phospho-tyrosine immunoblot). As to conditions: ursolic acid 10 μM, 2 minutes; C2C12 myoblasts serum-starved 6 hours; absence or presence of recombinant human growth hormone 100 ng/ml. It counts as cell-based. How it is done:
as §3
C2C12 Myotube Culture and Infection—Mouse C2C12 myoblasts were obtained from ATCC (CRL-1772), and maintained at 37° C. and 5% CO2 in Dulbecco's modified Eagle's medium (DMEM) (ATCC #30-2002) containing antibiotics (100 units/ml penicillin, 100 μg/ml streptomycin sulfate) and 10% (v/v) fetal bovine serum (FBS). Myoblasts were set up for experiments on day 0 in 6-well plates at a density of 2.5×10^5 cells/well. On day 2, differentiation was induced by replacing 10% FBS with 2% horse serum. On day 7, cells were rinsed once with PBS, and then 1 ml DMEM containing adenovirus was added to each well. […]
A general note: A western blot detects proteins with antibodies after separation by electrophoresis.

The conditions of data set [5]: general statement, no test described; cited from earlier work.

Take “3-β-hydroxy-urs-12-en-28-oic acid [ursolic acid]”: in the data set on Gadd45a mRNA, the “Gadd45a mRNA, immobile TA normalized to mobile TA” value is listed as “prevented induction”. Also, the “Cdkn1a mRNA, immobile TA normalized to mobile TA” value with Cdkn1a mRNA was “prevented induction”. Besides, in data set [1], the “TA muscle weight, left (immobile) normalized to right (mobile)” value was “reduced the loss of muscle mass” and the “size (diameter) of skeletal muscle fibers in immobilized TA muscles” value is “increased the size of skeletal muscle fibers”. Further, the “recovery of skeletal muscle mass after remobilization” value in data set [2] is listed as “significantly enhanced the recovery of skeletal muscle mass”. For the same substance, in data set [3], the “Hk2 mRNA in quadriceps” value is given as “increased”, the “IGF-I mRNA in quadriceps” value is “increased”, the “Nos1 mRNA in quadriceps” value is on record as “increased” and the “PGC-1α (Ppargc1a) mRNA in quadriceps” value is “increased”. In data set [3], the “Tfam mRNA in quadriceps” value is “increased”, the “Vegfa mRNA in quadriceps” value is on record as “increased” and the “androgen receptor (Ar) mRNA in quadriceps” value is recorded as “increased”. Besides, the “GHR phosphorylation (phospho-GHR vs total GHR)” value in data set [4] is recorded as “increased GHR phosphorylation”. In addition, the water solubility entry in data set [5] was “highly water-insoluble”.

The record behind these values is patent US20140371188A1, “COMPOSITIONS AND METHODS FOR INHIBITING MUSCLE ATROPHY AND INDUCING MUSCLE HYPERTROPHY” (UNIVERSITY OF IOWA RESEARCH FOUNDATION, priority 2011, published 2014).
